Data published in patent publication EP3911180B1, “PAENIBACILLUS WYNNII BETA-GALACTOSIDASE FOR THE PRODUCTION OF LACTOSE-DEPLETED AND GOS-ENRICHTED DAIRY PRODUCTS” (Universität Hohenheim, priority 2019, dated 2020).
Entries after “also recorded” stand apart in the source; their conditions may differ. Read-outs that look alike come from different tables or passages of the source.

Tests used:
[1] = biological target: T1, P. wynnii beta-galactosidase (SEQ ID NO: 1) (Paenibacillus wynnii, UniProt A0A098MAF9); test: Influence of galactose on the enzyme activity, lactose assay; type: biochemical; details: 8 °C
T1 sequence (A0A098MAF9 1-1042): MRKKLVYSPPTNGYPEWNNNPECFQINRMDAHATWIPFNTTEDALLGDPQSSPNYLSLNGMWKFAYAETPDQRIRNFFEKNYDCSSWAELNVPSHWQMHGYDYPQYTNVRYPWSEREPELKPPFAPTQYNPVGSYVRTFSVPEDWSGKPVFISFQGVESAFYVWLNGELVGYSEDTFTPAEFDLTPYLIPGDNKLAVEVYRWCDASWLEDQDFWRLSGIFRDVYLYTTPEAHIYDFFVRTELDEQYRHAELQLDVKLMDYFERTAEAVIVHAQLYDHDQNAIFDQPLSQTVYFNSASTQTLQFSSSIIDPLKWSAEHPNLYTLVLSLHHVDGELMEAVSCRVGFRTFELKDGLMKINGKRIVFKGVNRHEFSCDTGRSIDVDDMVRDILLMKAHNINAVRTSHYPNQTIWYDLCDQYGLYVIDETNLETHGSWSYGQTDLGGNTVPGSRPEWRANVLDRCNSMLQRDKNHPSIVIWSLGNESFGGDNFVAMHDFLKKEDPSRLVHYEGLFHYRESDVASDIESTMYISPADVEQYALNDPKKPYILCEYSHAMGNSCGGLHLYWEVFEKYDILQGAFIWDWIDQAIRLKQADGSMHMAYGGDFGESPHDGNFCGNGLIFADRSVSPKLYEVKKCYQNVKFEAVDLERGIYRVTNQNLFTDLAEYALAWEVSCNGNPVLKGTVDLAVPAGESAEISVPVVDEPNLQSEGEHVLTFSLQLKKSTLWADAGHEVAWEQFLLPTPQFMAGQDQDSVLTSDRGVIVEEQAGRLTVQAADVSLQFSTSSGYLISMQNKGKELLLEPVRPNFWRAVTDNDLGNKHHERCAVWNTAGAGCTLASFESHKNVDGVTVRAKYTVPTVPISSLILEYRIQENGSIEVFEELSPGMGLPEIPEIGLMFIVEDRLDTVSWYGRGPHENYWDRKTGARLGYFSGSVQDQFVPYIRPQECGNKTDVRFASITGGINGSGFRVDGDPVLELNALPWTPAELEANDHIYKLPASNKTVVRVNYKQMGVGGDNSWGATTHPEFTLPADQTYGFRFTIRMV
Description: (§1) For the substrate solution 400 mM lactose was dissolved in Novo buffer (the composition of which is depicted in Table 4). The beta-galactosidase activity was determined in a thermo shaker in 1.5 mL reaction tubes at 8°C. The enzyme mix and the lactose solution were preincubated at 8 °C for 12 min. To start the enzymatic reaction 100 µL of the enzyme mix were added to 100 µL lactose solution. The reaction was carried out for 5 min at 8 °C. The reaction was stopped by adding 300 µL 1 M HClO4 to the enzyme-substrate-mix. The mix was kept on ice for 5 min before it was centrifuged at 13 000 rcf and 4 °C for 5 min. 160 µL of the supernatant were transferred to 75 µL 2 M KOH to neutralise the solution. The neutralisation step was checked using pH paper and the pH was adjusted if necessary. The solution was kept on ice for another 5 min before it was centrifuged at 13 000 rcf at 4 °C for 5 min. All assays were performed in triplicate. Table 4: Composition of Novo buffer
(§2) The influence of galactose was investigated with P. wynnii beta-galactosidase and the commercial beta-galactosidase Opti-Lactase (Optiferm GmbH, Oy-Mittelberg (D)). The determination of the enzyme activity in Novo buffer was conducted with a lactose concentration of 125 mM and 50 mM respectively. To this solutions 125 or 200 mM galactose were added. The determination of the enzyme activity was performed as described above.
(§3) First, 125 and 200 mM galactose respectively were added to 125 mM lactose (A). The enzyme activity of the technical enzyme preparation decreased with increasing galactose concentration. An activity of 51.8 % was determined. […] In another experiment 200 mM galactose was added to 50 mM lactose (B). Here, the same effect as in (A) could be observed.

[2] = biological target: commercial beta-galactosidase Opti-Lactase (K. lactis) (Kluyveromyces lactis, UniProt P00723); test: as above; type: biochemical; details: 200 mM galactose, 8 °C, substrate Lactose
Sequence of commercial beta-galactosidase Opti-Lactase (K. lactis) (P00723 whole entry): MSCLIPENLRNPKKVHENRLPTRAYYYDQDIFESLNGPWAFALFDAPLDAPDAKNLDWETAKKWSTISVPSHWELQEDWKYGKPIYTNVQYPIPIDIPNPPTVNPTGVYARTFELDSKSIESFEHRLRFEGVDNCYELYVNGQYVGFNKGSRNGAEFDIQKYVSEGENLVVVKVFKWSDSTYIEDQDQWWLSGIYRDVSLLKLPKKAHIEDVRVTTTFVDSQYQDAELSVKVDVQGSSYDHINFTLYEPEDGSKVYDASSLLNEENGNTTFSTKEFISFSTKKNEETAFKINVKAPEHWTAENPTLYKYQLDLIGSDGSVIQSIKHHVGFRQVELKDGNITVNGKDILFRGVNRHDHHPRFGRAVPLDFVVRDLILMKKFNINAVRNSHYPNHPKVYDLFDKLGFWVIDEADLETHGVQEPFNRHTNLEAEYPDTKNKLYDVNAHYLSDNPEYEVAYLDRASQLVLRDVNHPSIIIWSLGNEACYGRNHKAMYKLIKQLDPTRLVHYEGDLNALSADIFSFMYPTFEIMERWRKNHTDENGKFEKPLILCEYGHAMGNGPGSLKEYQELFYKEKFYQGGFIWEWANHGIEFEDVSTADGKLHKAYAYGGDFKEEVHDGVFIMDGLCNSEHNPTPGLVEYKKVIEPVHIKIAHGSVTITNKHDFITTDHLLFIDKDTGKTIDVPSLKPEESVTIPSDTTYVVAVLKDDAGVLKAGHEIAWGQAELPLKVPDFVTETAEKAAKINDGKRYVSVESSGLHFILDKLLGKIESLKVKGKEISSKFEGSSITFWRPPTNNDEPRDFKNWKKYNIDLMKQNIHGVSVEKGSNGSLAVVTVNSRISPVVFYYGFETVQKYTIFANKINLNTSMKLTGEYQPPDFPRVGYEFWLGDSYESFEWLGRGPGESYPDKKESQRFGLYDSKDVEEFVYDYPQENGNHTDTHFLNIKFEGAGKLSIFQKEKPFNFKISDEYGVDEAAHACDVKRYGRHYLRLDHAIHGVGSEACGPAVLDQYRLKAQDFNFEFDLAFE
Description: as §1, §2, §3

[3] = biological target: T1, P. wynnii beta-galactosidase (SEQ ID NO: 1); test: Influence of glucose and galactose on the enzyme activity, oNPGal assay; type: biochemical; details: pH 6.75, 200 mM Galactose, 37 °C, read-out: Relative enzyme activity
Description: (§4) The enzyme activity of beta-galactosidase was determined in 1.2 mL scale using oNPGal as substrate at 37 °C. For the assays a final concentration of 25 mM oNPGal dissolved in 100 mM potassium phosphate buffer (pH 6.75 containing 5 mM magnesium chloride) was used. Substrate and enzyme solution were preheated separately. The reaction was performed in a temperature-controlled cuvette using a spectrophotometer by adding enzyme solution to oNPGal solution. The increase of absorbance at 405 nm as result of o-nitrophenol release was measured for 2 min. The activity was calculated from the slope of the straight line.
(§5) Due to the experimental setup (analysis), it was not possible to measure the influence of glucose with the natural substrate lactose.

[4] = system: Metagenome M1 beta-galactosidase (metagenome beta-galactosidase 3J33 as described in EP 2 530 148 A1); test: as above; type: biochemical; details: 200 mM galactose, 37 °C, substrate oNPGal
Description: as §4, §5

[5] = system: P. barengoltzii beta-galactosidase; details: 200 mM galactose, 45 °C, substrate oNPGal; cited from earlier work
[6] = system: Metagenome M1 beta-galactosidase (metagenome beta-galactosidase 3J33 as described in EP 2 530 148 A1); test: Influence of galactose on the enzyme activity, lactose assay; type: biochemical; details: 8 °C; for Relative enzyme activity: Lactose-Assay
Description: as §1
The influence of galactose was also investigated with the metagenome M1 beta-galactosidase as described before. The determination of the enzyme activity in Novo buffer was conducted with a lactose concentration of 125 mM and 50 mM respectively. To this solutions 125 or 200 mM galactose were added.

[7] = biological target: K. lactis beta-galactosidase (Kluyveromyces lactis, UniProt P00723); details: 200 mM galactose, 37 °C, substrate oNPGal; cited from earlier work
Sequence of K. lactis beta-galactosidase (P00723 whole entry): as above

[8] = biological target: T1, P. wynnii beta-galactosidase (SEQ ID NO: 1); test: Determination of KM with lactose as substrate; type: biochemical; details: Novo-buffer, 8 °C
Description: as §1, with “The solution was kept on ice for another 5 min before it was centrifuged at 13 000 rcf at 4 °C for 5 min. All assays were performed in triplicate. Table 4: Composition of Novo buffer” left out
The kinetic parameters were determined using the natural substrate lactose. […]
For the determination of the KM values of P. wynnii beta-galactosidase lactose concentrations ranged from 0.76 mM to 97.5 mM. […] The enzyme activities were measured under initial reaction velocity conditions of the enzyme. The reaction times for the initial velocity of the enzymes were determined in previous experiments. The kinetic parameter KM was analysed using the Enzyme Kinetics Module in SigmaPlot 12.5 (Systat Software, Inc., San Jose, USA). […]

[9] = system: Metagenome M1 beta-galactosidase (metagenome beta-galactosidase 3J33 as described in EP 2 530 148 A1); test: Turnover number with lactose as substrate; type: biochemical; details: 8 °C
Description: To determine the turnover number, the specific activity of the enzymes on lactose at 8 °C was determined. The following formula was used to determine the turnover number: Kcat = (Vmax)/([E]) [s^−1] [formula] • Kcat = turnover number [s^-1] • Vmax = maximum activity [nkat/mg] • [E] = enzyme concentration […]
In Table 9, the calculated turnover numbers of the two beta-galactosidases are depicted. Table 9: Turnover numbers of the beta-galactosidases M1 and P. wynnii (8 °C, lactose as substrate)

[10] = system: Metagenome M1 beta-galactosidase (metagenome beta-galactosidase 3J33 as described in EP 2 530 148 A1); details: 8 °C, read-out: KM,lactose, cited from earlier work
[11] = system: Bacillus circulans beta-galactosidase; details: phosphate buffer, 40 °C; read-out: KM,lactose; cited from earlier work
[12] = system: beta-galactosidase PbGal2A from P. barengoltzii; details: read-out: KM,lactose, cited from earlier work

## OC[C@H]1OC(O)[C@H](O)[C@@H](O)[C@H]1O (stereo partly drawn) [galactose, D-galactose]
[1]; 200 mM galactose, substrate Lactose
  activity at 200000 µM: 100%
[1]; 5 min, 50 mM lactose + 200 mM galactose, Lactose-Assay, read-out: Relative enzyme activity
  remaining activity at 200000 µM: 110%
[1]; 5 min, 125 mM lactose + 125 mM galactose, Lactose-Assay, read-out: Relative enzyme activity
  remaining activity at 125000 µM: 108%
[1]; 5 min, 125 mM lactose + 200 mM galactose, Lactose-Assay, read-out: Relative enzyme activity
  remaining activity at 200000 µM: 115%
[1]; galactose up to 200 mM, Novo buffer, lactose as substrate
  inhibition by galactose: No inhibition; also recorded: did not have an inhibitory effect
[2]
  activity at 200000 µM: 32.5%
[3]
  remaining activity at 200000 µM: 118%
[4]
  Influence of galactose (200 mM): 100 % EA
[5]
  Influence of galactose (200 mM): 43.27 % EA
[6]; 50 mM lactose + 200 mM galactose
  Relative enzyme activity: 100%
[6]; 125 mM lactose + 125 mM galactose
  Relative enzyme activity: 97%
[6]; 125 mM lactose + 200 mM galactose
  Relative enzyme activity: 101%
[6]; 125 or 200 mM galactose, 125 or 50 mM lactose, Novo buffer
  inhibition by galactose: did also not have an inhibitory effect
[7]
  Influence of galactose (200 mM): 75 % EA

## OC[C@H]1O[C@@H](O[C@H]2[C@H](O)[C@@H](O)C(O)O[C@@H]2CO)[C@H](O)[C@@H](O)[C@H]1O (stereo partly drawn) [lactose]
[8]
  Km: 0.34 to 0.52 mM
[9]
  Turnover number (Kcat): 2.466 s⁻¹
[10]; Novo buffer
  Km: 1.44 mM
[10]; milk + Novo buffer
  Km: 2.1 mM
[11]
  Km: 16 mM
[12]; MOPS buffer, 45 °C
  Km: 43.3 mM
[12]
  Km: 43.3 ± 1.84 mM
